Data: PubChem BioAssay AID2060602 (Molecular Pharmacology Branch, DTP, NCI, 2025)
Values joined by “and” are separate entries in the source; they are usually repeats but may differ in a detail not shown here. Equal values may be shown once.

Test system: 648629-189-R-J1-PDC complex spheroids viability
Experiment: Anticancer human tumor 648629-189-R-J1-PDC patient-derived bladder carcinoma cell line growth inhibition [CLK]
Conditions: for viability, T/C: stronger effect = lower value; active = viability on the fitted dose curve at most 10% of control; inactive = the rest
How it was run: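 Patient-derived tumor cells grown as complex spheroids with HUVEC endothelial cells and mesenchymal stem cells, treated with drug combinations. Concentrations descend in half-log steps from near clinical Cmax, or from 10 microM if Cmax unknown.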

[1] = curve of first compound, second compound 0.0316 µM
[2] = curve of first compound, second compound 0.1 µM
[3] = curve of first compound, second compound 0.316 µM
[4] = curve of first compound, second compound 1 µM
[5] = curve of first compound, second compound 3.16 µM
[6] = curve of first compound, second compound 10 µM
[7] = second compound 0.0316 µM, first compound 0.0316 µM
[8] = second compound 0.0316 µM, first compound 0.1 µM
[9] = second compound 0.0316 µM, first compound 0.316 µM
[10] = second compound 0.0316 µM, first compound 1 µM
[11] = second compound 0.0316 µM, first compound 3.16 µM
[12] = second compound 0.0316 µM, first compound 10 µM
[13] = second compound 0.1 µM, first compound 0.0316 µM
[14] = second compound 0.1 µM, first compound 0.1 µM
[15] = second compound 0.1 µM, first compound 0.316 µM
[16] = second compound 0.1 µM, first compound 1 µM
[17] = second compound 0.1 µM, first compound 3.16 µM
[18] = second compound 0.1 µM, first compound 10 µM
[19] = second compound 0.316 µM, first compound 0.0316 µM
[20] = second compound 0.316 µM, first compound 0.1 µM
[21] = second compound 0.316 µM, first compound 0.316 µM
[22] = second compound 0.316 µM, first compound 1 µM
[23] = second compound 0.316 µM, first compound 3.16 µM
[24] = second compound 0.316 µM, first compound 10 µM
[25] = second compound 1 µM, first compound 0.0316 µM
[26] = second compound 1 µM, first compound 0.1 µM
[27] = second compound 1 µM, first compound 0.316 µM
[28] = second compound 1 µM, first compound 1 µM
[29] = second compound 1 µM, first compound 3.16 µM
[30] = second compound 1 µM, first compound 10 µM
[31] = second compound 3.16 µM, first compound 0.0316 µM
[32] = second compound 3.16 µM, first compound 0.1 µM
[33] = second compound 3.16 µM, first compound 0.316 µM
[34] = second compound 3.16 µM, first compound 1 µM
[35] = second compound 3.16 µM, first compound 3.16 µM
[36] = second compound 3.16 µM, first compound 10 µM
[37] = second compound 10 µM, first compound 0.0316 µM
[38] = second compound 10 µM, first compound 0.1 µM
[39] = second compound 10 µM, first compound 0.316 µM
[40] = second compound 10 µM, first compound 1 µM
[41] = second compound 10 µM, first compound 3.16 µM
[42] = second compound 10 µM, first compound 10 µM
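Throughout, for viability, T/C: drug exposure lasted seven days before viability readout; 100% = DMSO vehicle control wells.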

C#Cc1c(F)ccc2cc(O)cc(-c3ncc4c(N5CC6CCC(C5)N6)nc(OCC56CCCN5CC(F)C6)nc4c3F)c12 (stereo not drawn) + CNC(=O)c1ccc(Nc2nc(OC3CCCC3)c3c(-c4ccc5nc(C)oc5c4)c[nH]c3n2)c(OC)c1
< 31.6 nM: IC50 [3] | IC50 [4] | IC50 [5] | IC50 [6]
inactive: viability, T/C [7] 120% | viability, T/C [8] 88.4% | viability, T/C [9] 108% | viability, T/C [10] 105% | viability, T/C [11] 100% | viability, T/C [12] 91.4% | viability, T/C [13] 83.2% | viability, T/C [14] 76.9% | viability, T/C [15] 84.1% | viability, T/C [16] 79.4% | viability, T/C [17] 61.8% | viability, T/C [18] 48% | viability, T/C [19] 28.1% | viability, T/C [20] 25.4% | viability, T/C [21] 25.1% | viability, T/C [22] 23% | viability, T/C [23] 19.3% | viability, T/C [24] 22% | viability, T/C [25] 18.7% | viability, T/C [26] 20.2% | viability, T/C [27] 15.5% | viability, T/C [28] 18.6% | viability, T/C [29] 18.2% | viability, T/C [30] 19.4% | viability, T/C [31] 17.2% | viability, T/C [32] 17.6% | viability, T/C [33] 15.4% | viability, T/C [34] 16.9% | viability, T/C [35] 17.6% | viability, T/C [36] 17.9% | viability, T/C [37] 20.1% | viability, T/C [38] 18.5% | viability, T/C [39] 18% | viability, T/C [40] 17% | viability, T/C [41] 21.5% | viability, T/C [42] 16.6%
> 10000 nM: IC50 [1]
8430 nM: IC50 [2]

COc1ccc([C@@H](O)c2cc(-c3ncnc4cc(N5CCOCC5)ccc34)c(F)cc2Cl)nn1
7050 nM and 6680 nM: IC50 (curve of compound)
inactive: viability, T/C (compound 0.0316 µM) 92.5% and 93.4% | viability, T/C (compound 0.1 µM) 94.4% and 108% | viability, T/C (compound 0.316 µM) 94.7% and 89.7% | viability, T/C (compound 1 µM) 75.6% and 85% | viability, T/C (compound 3.16 µM) 74.8% and 70% | viability, T/C (compound 10 µM) 40.1% and 39.5%

CC(CO)NC(=O)c1cc(-c2ccc(Cl)cc2)nn(-c2cnn(C)c2)c1=O (stereo not drawn) + CNC(=O)c1ccc(Nc2nc(OC3CCCC3)c3c(-c4ccc5nc(C)oc5c4)c[nH]c3n2)c(OC)c1
< 31.6 nM: IC50 [3] | IC50 [4] | IC50 [5] | IC50 [6]
inactive: viability, T/C [7] 99.5% | viability, T/C [8] 92.6% | viability, T/C [9] 117% | viability, T/C [10] 104% | viability, T/C [11] 88.9% | viability, T/C [12] 88.5% | viability, T/C [13] 90.9% | viability, T/C [14] 87.7% | viability, T/C [15] 90.3% | viability, T/C [16] 76.9% | viability, T/C [17] 90.9% | viability, T/C [18] 82.8% | viability, T/C [19] 31.1% | viability, T/C [20] 28.2% | viability, T/C [21] 29.3% | viability, T/C [22] 30.2% | viability, T/C [23] 26.8% | viability, T/C [24] 21.7% | viability, T/C [25] 16.6% | viability, T/C [26] 19.7% | viability, T/C [27] 18.5% | viability, T/C [28] 18.8% | viability, T/C [29] 22.5% | viability, T/C [30] 18.8% | viability, T/C [31] 18% | viability, T/C [32] 21.2% | viability, T/C [33] 16.1% | viability, T/C [34] 23% | viability, T/C [35] 20.8% | viability, T/C [36] 17.9% | viability, T/C [37] 18.7% | viability, T/C [38] 20.2% | viability, T/C [39] 19.5% | viability, T/C [40] 21.6% | viability, T/C [41] 19.2% | viability, T/C [42] 19.3%
> 10000 nM: IC50 [1] | IC50 [2]

CCc1c2c(nc3ccc(O)cc13)-c1cc3c(c(=O)n1C2)COC(=O)[C@]3(O)CC + CNC(=O)c1ccc(Nc2nc(OC3CCCC3)c3c(-c4ccc5nc(C)oc5c4)c[nH]c3n2)c(OC)c1
active: viability, T/C [7] 8.79% | viability, T/C [8] 5.84% | viability, T/C [9] 5.59% | viability, T/C [10] 4.59% | viability, T/C [13] 7.18% | viability, T/C [14] 5.66% | viability, T/C [15] 5.26% | viability, T/C [16] 2.75% | viability, T/C (second compound 0.316 µM, first compound 0.01 µM) 8.48% | viability, T/C [19] 7.05% | viability, T/C [20] 4.87% | viability, T/C [21] 5.55% | viability, T/C [22] 4.88% | viability, T/C [25] 8.46% | viability, T/C [26] 5.17% | viability, T/C [27] 4.53% | viability, T/C [28] 3.56% | viability, T/C [31] 9.98% | viability, T/C [32] 6.24% | viability, T/C [33] 7.38% | viability, T/C [34] 5.35% | viability, T/C [38] 7.91% | viability, T/C [39] 6.48% | viability, T/C [40] 4.98%
inactive: viability, T/C (second compound 0.0316 µM, first compound 0.00316 µM) 30.3% | viability, T/C (second compound 0.0316 µM, first compound 0.01 µM) 11.5% | viability, T/C (second compound 0.1 µM, first compound 0.00316 µM) 30.1% | viability, T/C (second compound 0.1 µM, first compound 0.01 µM) 10.5% | viability, T/C (second compound 0.316 µM, first compound 0.00316 µM) 14.1% | viability, T/C (second compound 1 µM, first compound 0.00316 µM) 11.9% | viability, T/C (second compound 1 µM, first compound 0.01 µM) 10.9% | viability, T/C (second compound 3.16 µM, first compound 0.00316 µM) 14.8% | viability, T/C (second compound 3.16 µM, first compound 0.01 µM) 13.1% | viability, T/C (second compound 10 µM, first compound 0.00316 µM) 17.2% | viability, T/C (second compound 10 µM, first compound 0.01 µM) 13.8% | viability, T/C [37] 10.4%
< 3.16 nM: IC50 [1] | IC50 [2] | IC50 [3] | IC50 [4] | IC50 [5] | IC50 [6]

CC(Nc1ccc2c(c1)OCCn1cc(N3C(=O)OCC3C(F)F)nc1-2)C(N)=O (stereo not drawn)
inactive: viability, T/C (compound 0.0316 µM) 106% and 92.8% | viability, T/C (compound 0.1 µM) 99.8% and 111% | viability, T/C (compound 0.316 µM) 89% and 83.4% | viability, T/C (compound 1 µM) 82.8% and 76.1% | viability, T/C (compound 3.16 µM) 54.4% and 56.5% | viability, T/C (compound 10 µM) 38.2% and 46.5%
4860 nM and 6820 nM: IC50 (curve of compound)

CCc1c2c(nc3ccc(O)cc13)-c1cc3c(c(=O)n1C2)COC(=O)[C@]3(O)CC
active: viability, T/C (compound 0.0316 µM) 6.99% and 10.1% | viability, T/C (compound 0.1 µM) 5.22% and 6.99% | viability, T/C (compound 0.316 µM) 4.52% and 6.06% | viability, T/C (compound 1 µM) 3.5% and 4.41%
inactive: viability, T/C (compound 0.00316 µM) 43.1% and 28.1% | viability, T/C (compound 0.01 µM) 17.6% and 10.2%
< 3.16 nM: IC50 (curve of compound)

C=CC(=O)Nc1cc(Nc2nccc(-c3cn(C)c4ccccc34)n2)c(OC)cc1N(C)CCN(C)C
> 300 nM: IC50 (curve of compound)
inactive: viability, T/C (compound 0.000949 µM) 99.8% and 108% | viability, T/C (compound 0.003 µM) 92.8% and 88.8% | viability, T/C (compound 0.00949 µM) 103% and 107% | viability, T/C (compound 0.03 µM) 110% and 92.8% | viability, T/C (compound 0.0949 µM) 104% and 111% | viability, T/C (compound 0.3 µM) 83.7% and 87.5%

CC(=O)O[C@H]1C(=O)[C@@]2(C)[C@H]([C@H](OC(=O)c3ccccc3)[C@]3(O)C[C@H](OC(=O)[C@H](O)[C@@H](NC(=O)c4ccccc4)c4ccccc4)C(C)=C1C3(C)C)[C@]1(OC(C)=O)CO[C@@H]1C[C@@H]2O + CNC(=O)c1ccc(Nc2nc(OC3CCCC3)c3c(-c4ccc5nc(C)oc5c4)c[nH]c3n2)c(OC)c1
< 31.6 nM: IC50 [1] | IC50 [2] | IC50 [3] | IC50 [4] | IC50 [5] | IC50 [6]
inactive: viability, T/C [7] 11.1% | viability, T/C [8] 9.61% | viability, T/C [9] 10% | viability, T/C [10] 12.1% | viability, T/C [11] 14.1% | viability, T/C [12] 15.9% | viability, T/C [13] 13.8% | viability, T/C [14] 12.4% | viability, T/C [15] 11.7% | viability, T/C [16] 12.5% | viability, T/C [17] 13% | viability, T/C [18] 28.7% | viability, T/C [19] 40.7% | viability, T/C [20] 50.4% | viability, T/C [21] 62.9% | viability, T/C [22] 70.5% | viability, T/C [23] 76.1% | viability, T/C [24] 97.3% | viability, T/C [25] 40.6% | viability, T/C [26] 64.3% | viability, T/C [27] 58.8% | viability, T/C [28] 66.5% | viability, T/C [29] 75% | viability, T/C [30] 76.9% | viability, T/C [31] 33.9% | viability, T/C [32] 47.7% | viability, T/C [33] 74.3% | viability, T/C [34] 64.2% | viability, T/C [35] 67.5% | viability, T/C [36] 72.7% | viability, T/C [37] 39.9% | viability, T/C [38] 42.5% | viability, T/C [39] 59.8% | viability, T/C [40] 64.4% | viability, T/C [41] 65.7% | viability, T/C [42] 73.2%

C=CC(=O)N1CCN(c2nc(=O)n(-c3c(C)ccnc3C(C)C)c3nc(-c4c(O)cccc4F)c(F)cc23)C(C)C1 (stereo not drawn)
inactive: viability, T/C (compound 0.0316 µM) 84.4% and 97.4% | viability, T/C (compound 0.1 µM) 95.1% and 95.9% | viability, T/C (compound 0.316 µM) 99.2% and 102% | viability, T/C (compound 1 µM) 106% and 98.1% | viability, T/C (compound 3.16 µM) 104% and 96.5% | viability, T/C (compound 10 µM) 89.5% and 94.4%
> 10000 nM: IC50 (curve of compound)
